The record followed here is ChEMBL document CHEMBL2417365, “Design, synthesis, and in vitro hMAO-B inhibitory evaluation of some 1-methyl-3,5-diphenyl-4,5-dihydro-1H-pyrazoles” (Bioorg Med Chem Lett, 2013).

The species entered for series [1] is Homo sapiens. The series can be described thus: Selectivity index, ratio of IC50 for human MAO-A to IC50 for human MAO-B.
For series [2], the target named is T1, Amine oxidase [flavin-containing] A (Homo sapiens, UniProt P21397).
T1 sequence (P21397 whole entry): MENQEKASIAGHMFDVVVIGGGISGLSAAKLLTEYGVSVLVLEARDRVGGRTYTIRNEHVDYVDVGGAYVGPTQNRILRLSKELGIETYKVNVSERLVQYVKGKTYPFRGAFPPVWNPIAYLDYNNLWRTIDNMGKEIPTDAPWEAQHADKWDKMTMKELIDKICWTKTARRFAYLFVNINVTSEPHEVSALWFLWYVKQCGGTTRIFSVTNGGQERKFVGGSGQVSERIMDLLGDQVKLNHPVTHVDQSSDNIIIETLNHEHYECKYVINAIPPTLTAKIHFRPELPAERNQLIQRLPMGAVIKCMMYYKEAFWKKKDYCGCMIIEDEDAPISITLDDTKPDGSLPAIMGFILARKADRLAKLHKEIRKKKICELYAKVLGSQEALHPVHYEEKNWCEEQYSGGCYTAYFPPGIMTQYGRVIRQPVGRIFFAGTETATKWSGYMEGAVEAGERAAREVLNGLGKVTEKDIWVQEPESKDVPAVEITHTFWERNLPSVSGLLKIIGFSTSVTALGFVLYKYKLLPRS
As to the kind of experiment: Inhibition of human recombinant microsomal MAO-A expressed in baculovirus-infected insect BTI-TN-5B1-4 cells assessed as p-tyramine conversion to H2O2 by fluorescence assay.

For series [3], the target named is T2, Amine oxidase [flavin-containing] B (Homo sapiens, UniProt P27338).
T2 sequence (P27338 whole entry): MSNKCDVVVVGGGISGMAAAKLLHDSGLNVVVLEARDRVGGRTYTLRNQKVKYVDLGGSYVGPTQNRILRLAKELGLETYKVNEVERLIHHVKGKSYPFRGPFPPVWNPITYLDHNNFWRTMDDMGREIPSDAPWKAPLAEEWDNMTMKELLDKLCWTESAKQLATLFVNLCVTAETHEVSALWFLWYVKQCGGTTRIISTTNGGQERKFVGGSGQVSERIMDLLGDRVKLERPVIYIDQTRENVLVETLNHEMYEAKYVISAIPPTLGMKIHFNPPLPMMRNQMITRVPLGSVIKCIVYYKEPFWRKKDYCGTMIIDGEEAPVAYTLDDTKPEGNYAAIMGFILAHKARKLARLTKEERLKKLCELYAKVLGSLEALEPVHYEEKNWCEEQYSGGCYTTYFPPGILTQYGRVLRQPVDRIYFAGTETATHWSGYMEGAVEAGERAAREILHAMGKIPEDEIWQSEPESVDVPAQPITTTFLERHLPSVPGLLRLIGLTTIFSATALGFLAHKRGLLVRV
As to the kind of experiment: biochemical. The format is cell-based, BTI-TN-5B1-4.
Description: Inhibition of human recombinant microsomal MAO-B expressed in baculovirus-infected insect BTI-TN-5B1-4 cells assessed as p-tyramine conversion to H2O2 by fluorescence assay

For series [4], the target named is T1, Amine oxidase [flavin-containing] A. As to the kind of experiment: Inhibition of human recombinant microsomal MAO-A expressed in baculovirus-infected insect BTI-TN-5B1-4 cells at 100 uM assessed as p-tyramine conversion to H2O2 by fluorescence assay. The conditions noted are these: for inhibition (INH): human, bti-tn-5b1-4, 100 µM; for inhibition at 100 µM: BTI-TN-5B1-4, human.

In series [5] the target is Amine oxidase [flavin-containing] B (Homo sapiens) (UniProt P27338). As to the kind of experiment: Ratio of selegiline IC50 to compound IC50 for human MAO-B.
The target is the same in series [6]. The series can be described thus: Ratio of moclobemide IC50 to compound IC50 for human MAO-B.
In series [7] the target is T1, Amine oxidase [flavin-containing] A. The series can be described thus: Ratio of clorgyline IC50 to compound IC50 for human MAO-A.
Series [8] deals with Amine oxidase [flavin-containing] B (Homo sapiens) (UniProt P27338). As to the kind of experiment: Ratio of iproniazid IC50 to compound IC50 for human MAO-B.
Series [9] concerns the target T2, Amine oxidase [flavin-containing] B. As to the kind of experiment: Ratio of selegiline IC50 to compound IC50 for human MAO-B.
Series [10] shares this target. The series can be described thus: Ratio of clorgyline IC50 to compound IC50 for human MAO-B.
Series [11] shares this target. The series can be described thus: Inhibition of human recombinant microsomal MAO-B expressed in baculovirus-infected insect BTI-TN-5B1-4 cells at 100 uM assessed as p-tyramine conversion to H2O2 by fluorescence assay. Conditions: for inhibition at 100 µM: BTI-TN-5B1-4, human; for inhibition (INH): human, bti-tn-5b1-4, 100 µM; call rule not given here.

Consider `CN1N=C(c2ccccc2)CC1c1ccccc1F` (stereo unspecified), for which, in [1], the Ratio IC50 turned out to be 10. Besides, the IC50 (usually the midpoint of a concentration-inhibition curve) is 2840 nM in series [2] and 280 nM in [3].

As to `CN1N=C(c2ccccc2)CC1c1ccccc1Cl` (stereo unspecified), the Ratio IC50 in [1] was greater than 27. In series [4], the “inhibition (INH)” value is listed as “Not Active”. The molecule also returned an IC50 in series [3] of 3650 nM.

As for `Cc1ccc(C2CC(c3ccccc3)=NN2C)cc1` (stereo unspecified), the “Ratio IC50” value in series [5] is “<= 2”; in [1] it was 145; in [6], “<= 2”; in series [7], “<= 2”; in [8], “<= 2”; in series [9], no less than 2. Also, the Ratio IC50 in [10] was no less than 2. Also, the figures for the IC50 in series [2] and in [3] were 1390 nM and 9.6 nM, respectively.

For the molecule `CN1N=C(c2ccccc2)CC1c1cccc(Cl)c1` (stereo unspecified), in series [1], the Ratio IC50 worked out at 61. For the same molecule, the values for the IC50 in [2] and in [3] were 51000 nM and 840 nM, respectively.

`CN1N=C(c2ccc(O)cc2)CC1c1ccccc1` (stereo unspecified): in [1], the Ratio IC50 is greater than 3.7. Also, the inhibition (usually the relative decrease from the control value, in per cent) at 100 µM in [4] came to 40%. In addition, it took 26800 nM to reach half-maximal inhibition in series [3] (IC50).

In the case of `CN1N=C(c2ccc(O)cc2)CC1c1cccc(Cl)c1` (stereo unspecified), the Ratio IC50 in series [1] stood at 9. In addition, the IC50 in series [2] was found to be 18700 nM; in series [3], 2070 nM.

With `CN1N=C(c2ccc(O)cc2)CC1c1ccc(Cl)cc1` (stereo unspecified), the Ratio IC50 in series [1] was determined as 4.8. Moreover, the IC50 came out at 12700 nM in series [2] and 2640 nM in series [3].

In the case of `CN1N=C(c2ccc(O)cc2)CC1c1ccccc1F` (stereo unspecified), the Ratio IC50 in series [1] is greater than 33. In [4], the inhibition at 100 µM amounted to 40%. Further, 3040 nM corresponded to half-maximal inhibition in series [3] (IC50).

As for `CN1N=C(c2ccc(O)cc2O)CC1c1ccccc1Cl` (stereo unspecified), the Ratio IC50 in series [1] came out at 3.7. Further, the IC50 amounted to 1100 nM in series [2] and 300 nM in [3].

On to `Cc1cccc(C2CC(c3ccc(O)cc3)=NN2C)c1` (stereo unspecified), for which the Ratio IC50 in [1] worked out at 2.8. Further, the IC50 in series [2] was determined as 16300 nM; in [3], 5780 nM.

As for `CN1N=C(c2ccc(O)cc2)CC1c1ccc(F)cc1` (stereo unspecified), the Ratio IC50 in [1] is greater than 27. In addition, in series [4], the inhibition at 100 µM came out at 40%. In series [3], this molecule displayed an IC50 of 3650 nM.

Consider `Cc1ccc(C2CC(c3ccc(O)cc3)=NN2C)cc1` (stereo unspecified), for which, in series [1], the Ratio IC50 was 4.8. For the same molecule, the IC50 came out at 9130 nM in series [2] and 1910 nM in [3].

Turning to `CN1N=C(c2ccc(O)cc2O)CC1c1ccccc1` (stereo unspecified), the inhibition at 100 µM in series [11] and in [4] was 40% throughout.

In the case of `CN1N=C(c2ccc(O)cc2O)CC1c1cccc(F)c1` (stereo unspecified), the “inhibition (INH)” value in series [11] and in series [4] was “Not Active” each time.

For `Cc1ccc(C2CC(c3ccc(O)cc3O)=NN2C)cc1` (stereo unspecified), the inhibition at 100 µM in series [11] and in series [4] was 40% throughout.

As for `CN1N=C(c2ccccc2)CC1c1ccccc1` (stereo unspecified), the Ratio IC50 in series [1] is 14. Further, the IC50 in series [2] was 1680 nM; in series [3], 120 nM.

In the case of `Cc1ccccc1C1CC(c2ccc(O)cc2O)=NN1C` (stereo unspecified), the Ratio IC50 in [1] was determined as 1.9. Besides, the results for the IC50 in [2] and in [3] were 3980 nM and 2040 nM, respectively.

Regarding `CN1N=C(c2ccc(O)cc2O)CC1c1ccccc1F` (stereo unspecified), in series [1], the Ratio IC50 is greater than 26. The inhibition at 100 µM in series [4] was determined as 40%. Also, in series [3], the IC50 is 3870 nM.

Turning to `CN1N=C(c2ccc(O)cc2)CC1c1cccc(F)c1` (stereo unspecified), in [1], the Ratio IC50 is greater than 31. Also, in series [4], the inhibition at 100 µM came to 40%. This molecule displayed an IC50 in series [3] of 3170 nM.

`CN1N=C(c2ccccc2)CC1c1cccc(F)c1` (stereo unspecified): the Ratio IC50 in series [1] was 30. Moreover, the IC50 in series [2] is 1820 nM; in series [3], 60 nM.

With `Cc1ccccc1C1CC(c2ccccc2)=NN1C` (stereo unspecified), in series [1], the Ratio IC50 was 30. Besides, the IC50 in series [2] came out at 3260 nM; in series [3], 110 nM.

As for `CN1N=C(c2ccc(O)cc2O)CC1c1ccc(Cl)cc1` (stereo unspecified), the Ratio IC50 in series [1] is 4.1. The IC50 in series [2] was 1390 nM; in series [3] it was 340 nM.

For `Cc1cccc(C2CC(c3ccc(O)cc3O)=NN2C)c1` (stereo unspecified), the inhibition at 100 µM in series [11] and in [4] was 40% throughout.

Consider `CN1N=C(c2ccccc2)CC1c1ccc(Cl)cc1` (stereo unspecified), for which the Ratio IC50 in series [1] was greater than 25. Also, the “inhibition (INH)” value in series [4] is “Not Active”. For the same molecule, the IC50 in series [3] came out at 3950 nM.

For the molecule `Cc1ccccc1C1CC(c2ccc(O)cc2)=NN1C` (stereo unspecified), the Ratio IC50 in [1] was 1.1. Further, the results for the IC50 in series [2] and in series [3] were 21900 nM and 20100 nM, respectively.

In the case of `CN1N=C(c2ccccc2)CC1c1ccc(F)cc1` (stereo unspecified), in [1], the Ratio IC50 is 21. Moreover, the IC50 in [2] amounted to 3000 nM; in [3] it was 140 nM.

For `O=C(NCCN1CCOCC1)c1ccc(Cl)cc1` [MOCLOBEMIDE], the “inhibition (INH)” value in [11] was “Not Active”.

`CN1N=C(c2ccc(O)cc2O)CC1c1cccc(Cl)c1` (stereo unspecified): the Ratio IC50 in series [1] was found to be 2.3. Besides, the IC50 in series [2] came out at 420 nM; in [3] it was 180 nM.

For the molecule `Cc1cccc(C2CC(c3ccccc3)=NN2C)c1` (stereo unspecified), the Ratio IC50 in series [1] is greater than 909. Besides, in [4], the inhibition at 100 µM is 40%. This molecule also yielded an IC50 in [3] of 110 nM.

With `CN1N=C(c2ccc(O)cc2)CC1c1ccccc1Cl` (stereo unspecified), the Ratio IC50 in series [1] was determined as 1.1. Moreover, the IC50 is 11800 nM in series [2] and 10400 nM in series [3].

With `CN1N=C(c2ccc(O)cc2O)CC1c1ccc(F)cc1` (stereo unspecified), the IC50 in series [2] worked out at 810 nM.
